The record followed here is patent publication US8883698B2, “Compositions comprising a near terminal-branched compound and methods of making the same” (The Procter & Gamble Co, priority 2010, dated 2014).

This data set can be described thus: Dynamic Interfacial Tension analysis (Kruss DVT30 Drop Volume Tensiometer), ascending canola oil drop in aqueous surfactant phase. Type of data set: physicochemical. The settings on record: 6 gpg water hardness; 15° C. The method, then: The Dynamic Interfacial Tension analysis was performed on a Kruss® DVT30 Drop Volume Tensiometer. The instrument is configured to measure the interfacial tension of an ascending oil drop in aqueous detergent (surfactant) phase. The oil was canola oil. The aqueous detergent and oil phases are temperature controlled via a Polyscience® circulating water temperature controller attached to tensiometer. A dynamic interfacial tension curve is generated by dispensing the oil drops into the aqueous detergent phase from an ascending capillary with diameter of 0.2540 mm over a range of flow rates and measuring the interfacial tension at each flow rate. Data is generated at oil dispensing flow rates of 500 uL/min-1 uL/min with 2 flow rates per decade on a logarithmic scale (7 flow rates measured). Interfacial tension is measured on three oil drops per flow rate, then averaged. Interfacial tension is reported in units of mN/m. Surface age of the oil drops at each flow rate is also recorded and plots can be generated either of interfacial tension (y-axis) versus oil flow rate (x-axis) or interfacial tension (y-axis) versus oil drop surface age (x-axis).

As to 13-Methyltetradecylsulfate, the “precipitation observed during interfacial tension measurement” value is listed as “NM (precipitated)”.
